Assay type in all cases: cell-based
Experiment [1] deals with T1, BRD4 (Homo sapiens, UniProt O60885). As to the kind of experiment: BRD4 protein degradation by western blotting in MDA-MB-231 cells (24 h treatment). On the set-up: To evaluate the resolution of PROTAC for BRD4 expressed in cells; endogenous in cells; host or cells: MDA-MB-231.
Experiment [2] deals with RPMI2650. As to the kind of experiment: Cancer cell antiproliferative activity / cell viability in RPMI2650 cells (72 h treatment). The following applies: Homo sapiens, RPMI-2650, RPMI2650, read-out: BRD4 (IC50). The essentials: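 RPMI2650 human cells were grown under specific culture conditions and seeded at 5,000 cells/well in 96-well plates. Test compounds, dissolved in DMSO as 10 mM or 50 mM stock solutions and serially diluted, were applied at various concentrations for 72 hours. IC50, the concentration giving 50% cytostasis, was averaged over three independent measurements.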

Experiment [3] addresses T2, BRD4-NUT (Homo sapiens, UniProt O60885+Q86Y26).
T2 construct: endogenous in cells; host or cells: RPMI2650
As to the kind of experiment: BRD4-NUT protein degradation by western blotting in RPMI2650 cells (24 h treatment). The note with it: read-out: BRD4-NUT (DC50), RPMI2650. In outline: (§1)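 Cells seeded at 5 X 10^5 cells/well and exposed to serially diluted compound for 24 hours. Western blot bands were quantified by densitometry, normalized to β-actin or GAPDH and expressed as % of 0.1% DMSO vehicle. DC50 is the concentration giving 50% loss of protein.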

The subject of experiment [4] is MDA-MB-231. As to the kind of experiment: Cancer cell antiproliferative activity / cell viability in MDA-MB-231 cells (72 h treatment). The note with it: Homo sapiens, read-out: BRD4 (IC50). On the procedure: (§2) The human breast cancer cell line [MDA-MB-231] was cultured in RPMI medium with the addition of 10% fetal bovine serum, penicillin [100U/ml], and streptomycin [[…]]. The synthesized compounds were prepared with a 10 mM or 50 mM raw material solution dissolved in DMSO [dimethyl sulfoxide], and were diluted sequentially and treated. [RPMI2650] and [SNU2972] were cultivated under specific conditions.
(§3) To observe cell growth inhibition, cells were dispensed in a concentration of 5,000 cells/well in a 96-well plate, and samples prepared at various concentrations were treated for 72 hours. The IC50 value (the concentration of the compound achieving 50% cytostaticism) is the average value of the results of three independent measurements.

Experiment [5] relates to SNU2972. As to the kind of experiment: Cancer cell antiproliferative activity / cell viability in SNU2972 cells (72 h treatment). The note with it: read-out: BRD4 (IC50). On the procedure:
as §2, §3

For experiment [6], the target named is T1, BRD4. As to the kind of experiment: BRD4 protein degradation by western blotting in RPMI2650 cells (24 h treatment). The following applies: read-out: BR04 (DC50), RPMI2650. On the set-up: To evaluate the resolution of PROTAC for BRD4 expressed in cells; endogenous in cells; host or cells: RPMI2650. In outline: as §1

SMILES strings stand for the structures. pIC50: −log10 of the molar value. Bounds are passed on as bounds.

Data on 1 molecule can be found in patent publication EP4640686A1, “DEGRADER FOR DEGRADING BRD PROTEIN AND PHARMACEUTICAL COMPOSITION CONTAINING SAME” (Innocure Therapeutics, Inc., priority 2022, dated 2024).

For the molecule `Cc1sc2c(c1C)C(c1ccc(Cl)cc1)=N[C@@H](CC(=O)N1CCC(CN3CCN(c4ccc5c(C)nn(C6CCC(=O)NC6=O)c(=O)c5c4)CC3)CC1)c1nnc(C)n1-2` (stereo partly drawn) [ICT-0000982, 3-(7-(4-((1-(2-((S)-4-(4-chlorophenyl)-2,3,9-trimethyl-6H-thieno[3,2-f][1,2,4]triazolo[4,3-a][1,4]diazepine-6-day)acetyl)piperidine-4-il)methyl)piperazine-1-yl)4-methyl-1-oxopthalazine-2(1H)-yl)piperidine-2,6-dione], the 50% degradation concentration (DC50) in experiment [1], in experiment [3] and in experiment [6] was below 100 nM in each case. In addition, the negative-log IC50 (pIC50) in experiment [2], in experiment [4] and in experiment [5] was above 7.00 throughout.
